From PMC6862289, “Metabolic Profile, Bioavailability and Toxicokinetics of Zearalenone-14-Glucoside in Rats after Oral and Intravenous Administration by Liquid Chromatography High-Resolution Mass Spectrometry and Tandem Mass Spectrometry” (International Journal of Molecular Sciences, 2019)
Like-named read-outs stand apart in the source and are kept apart here.

Experiments:
[1] = Toxicokinetics of ZEN-14G in rats after oral and intravenous administration (plasma LC-MS/MS, non-compartmental analysis); format: in vivo, Wistar rats; conditions: for amount observed in plasma after intravenous administration of ZEN-14G: i.v. ZEN-14G 0.75 mg/kg, Figure 3D; for level detected in plasma after oral administration of ZEN-14G: p.o. ZEN-14G 0.75 mg/kg, Figure 3A; for k el: mean ± SD, n = 12, read-out: λZ (elimination rate constant) (converted); for AUC(0-inf): read-out: AUC0-infinity; for half-life: read-out: Elimination t1/2 (converted)
Protocol: The validated LC-MS/MS method was eligible for the toxicokinetic characterization of ZEN-14G in rats. The obtained data (above the LOQ) were analyzed via non-compartmental analysis using WinNonlin 6.3 software (Pharsight Co. Mountain View, CA, USA). The area under the plasma concentration–time curve (AUC) was obtained using the trapezoidal rule with extrapolation to infinity. […] The half-life period of ZEN in pigs was much longer than ZEN-14G in rats, which may be attributed to enterohepatic circulation. […] The low absolute bioavailability of ZEN-14G might be due to the deglycosylation of ZEN-14G to ZEN. The CL and VZ are extremely different between oral (p.o.) and intravenous (i.v.) administration. The VZ depends on the total mass absorbed and the plasma concentration. For oral administration, the low plasma concentration of ZEN-14G may because ZEN-14G appeared to be distributed into a very large volume or rapidly biotransformed into other compounds. The low oral bioavailability and low plasma concentration of ZEN-14G led to the […] VZ than that of i.v. administration. […] CL is the volume of blood from which a compound is removed per unit time. In comparison with p.o., much more of ZEN-14G was absorbed in the plasma after intravenous injection (i.v.)—more volume of blood cleared of ZEN-14G per unit time.
ZEN-14G was dissolved in aqueous solution containing 0.5% carboxymethyl cellulose. We selected twelve Wistar rats (half male and half female, with an average weight of 180 g, obtained from Vital River Laboratory Animal Technology Co. Ltd (Beijing, China). The rats were raised for one week for acclimation before the experiment, and the rats went through a 12 h fast before dosing. Six rats were treated with ZEN-14G via oral gavage at a dosage of 0.75 mg/kg body weight followed by blood collection at 0.083, 0.16, 0.25, 0.5, 0.75, 1.0, 1.5, 2, 4, and 6 h post administration while the other six rats were administered with the same amount of ZEN-14G intravenously and the blood samples were collected at the same time points. After a one-week withdrawal period, a crossover design was used for the following experiment where the rats administered orally would receive intravenous administration and vice versa. […] All the animal experiments complied with the National Institutes of Health guide for the care and use of laboratory animals, which has been approved on 20 March 2018 by the ethical committee of China Agricultural University (Beijing, China) (2018-SYXK-0238).
We extracted 100 μL of plasma using 100 μL of acetonitrile followed by centrifugation for 5 min at 14,000× g at 4 °C. This analytical method was established based on the published literature. The supernatant was gathered, evaporated until dry and eventually re-dissolved in 100 μL of 15% acetonitrile. This analytical method was soundly validated in plasma before application.
The separation and identification of ZEN-14G and its metabolites were performed on a Phenomenex column (Kinetex 50 mm × 2.1 mm i.d. 1.7 μm particle size, C18) using an ultra-high-performance liquid chromatograph (Agilent 1260 Infinity) coupled to a triple quadrupole mass spectrometer (Agilent 6495) under negative ESI mode (Agilent Technologies, Palo Alto, CA, USA). The chromatographic separations were achieved through a gradient elution program. Mobile phase A was water containing 0.1% formic acid, and phase B was acetonitrile containing 0.1% formic acid. The gradient elution program for phase B was listed as: 0–1 min, 0%–15%; 1–2 min, 15%–45%; 2–4 min, 45%–90%; 4–5 min, 90%; 5–5.1 min, 90%–15%; and 5.1–6.0 min, 15%. The key parameters for the mass spectrometer were as follows: capillary voltage (3.5 kV); gas temperature (250 °C); gas flow (11 L/min); nebulizer (45 psi); sheath gas temperature (350 °C); and sheath gas flow (12 L/min). Furthermore, the detailed information on precursor ions and the product ions of ZEN-14G and quantifiable products are described in Table S1. […]

[2] = broiler chickens; cited from earlier work
[3] = pigs; cited from earlier work
[4] = female pigs; cited from earlier work
[5] = poultry; cited from earlier work
[6] = rats; cited from earlier work
[7] = system: estrogenic receptors; design: method as in PMID 32625539; conditions: compared with ZEN; cited from earlier work
[8] = both sexes, Wistar, rat, in vivo, iv, 0.75 mg/kg body weight
[9] = both sexes, Wistar, rat, in vivo, po, 0.75 mg/kg body weight

CC1CCC[C@H](O)CCC/C=C/c2cc(O)cc(O)c2C(=O)O1 (stereo partly drawn) [α-ZEL, α-zearalenol]
amount observed in plasma after intravenous administration of ZEN-14G [1]: small amount | level detected in plasma after oral administration of ZEN-14G [1]: trace level

CC1=C[C@H]2O[C@@H]3[C@H](O[C@@H]4O[C@H](CO)[C@@H](O)[C@H](O)[C@H]4O)C[C@](C)([C@@]2(CO)[C@H](O)C1=O)[C@]31CO1 [DON-3G, deoxynivalenol-3-β-D-glucoside]
absolute oral bioavailability [2]: 3.79% | absolute oral bioavailability [3]: 16.1%

C[C@H]1CCCC(=O)CCC/C=C/c2cc(O)cc(O)c2C(=O)O1 [ZEN, Zearalenone]
yield of ZEN in plasma relative to that of ZEN-14G ([1]; after i.v. ZEN-14G 0.75 mg/kg body weight): approximately 4.5 times | level detected in plasma after oral administration of ZEN-14G [1]: trace level | absolute oral bioavailability [4]: around 51.5% | oral bioavailability [5]: 10% | oral bioavailability [6]: 10%

CC1CCC[C@H](O)CCC/C=C/c2cc(OC3OC(CO)C(O)C(O)C3O)cc(O)c2C(=O)O1 (stereo partly drawn) [α-ZEL-14G]
amount observed in plasma after intravenous administration of ZEN-14G [1]: small amount

CC1CCCC(=O)CCC/C=C/c2cc(OC3OC(CO)C(O)C(O)C3O)cc(O)c2C(=O)O1 (stereo not drawn) [ZEN-14G, Zearalenone-14-glucoside]
visible adverse phenomena ([1]; 0.75 mg/kg body weight, any route of administration (p.o., i.v.)): No visible adverse phenomena | bioavailability ([1]; both sexes, Wistar, rat, in vivo, 0.75 mg/kg, AUC oral / AUC intravenous × 100%, 0.75 mg/kg body weight, read-out: F (absolute oral bioavailability)): ~9% | AUC(0-t) [1, 8]: 1.79 ± 0.03 ng·h/mL | k el [1, 8]: 0.000883 s⁻¹ | AUC(0-inf) [1, 8]: 1.8 ± 0.02 ng·h/mL | half-life [1, 8]: 13.2 ± 1.8 min | MRT ([1]; both sexes, Wistar, rat, in vivo, iv, 0.75 mg/kg, i.v., 0.75 mg/kg body weight, read-out: MRT (mean residence time)): 12 ± 1.8 min | Vd ([1]; both sexes, Wistar, rat, in vivo, iv, 0.75 mg/kg, i.v., 0.75 mg/kg body weight, read-out: VZ (apparent volume of distribution)): 7.25 ± 1.23 L/kg | Vd ([1]; both sexes, Wistar, rat, in vivo, iv, 0.75 mg/kg, i.v., 0.75 mg/kg body weight, read-out: VZ (apparent volume of distribution), as printed in text): 87.2 L/kg | AUC(0-t) [1, 9]: 0.11 ± 0.03 ng·h/mL | Cmax [1, 9]: 0.2 ± 0.03 ng/mL | Tmax [1, 9]: 4.98 ± 0.6 min | k el [1, 9]: 0.0002 s⁻¹ | AUC(0-inf) [1, 9]: 0.16 ± 0.02 ng·h/mL | CL/F ([1]; both sexes, Wistar, rat, in vivo, po, 0.75 mg/kg body weight, read-out: CL (apparent total body clearance) (converted)): 75 mL/min/kg | half-life [1, 9]: 57.6 ± 4.2 min | CL (apparent total body clearance) ([1]; i.v., 0.75 mg/kg body weight): 83.7 ± 10.3 mL/min/kg | VZ (apparent volume of distribution) ([1]; p.o., 0.75 mg/kg body weight): 6.24 ± 0.73 L/kg | time point of the peak concentration ([1]; p.o., first time point): 5 min | estrogenic potency [7]: comparable to that of ZEN
